Experimental findings from patent US12668594B2, “TYK2 inhibitors and uses thereof” (Sudo Biosciences Limited, priority 2020, dated 2026) are described below.

Experiment [1] has as its target T1, TYK2 (Homo sapiens, UniProt P29597). Description: HEK-Blue IFNα/β reporter assay (SEAP) for TYK2 pseudokinase inhibition. In kind it is cell-based. To be noted: HEK-Blue IFNα/β cells, 1 ng/mL human recombinant IFNα. As for the experimental part: (§1) HEK-Blue™ IL-23 and IFNα/β cells with a stably-integrated cytokine receptor and STAT3 or STAT1 express STAT-inducible secreted embryonic alkaline phosphatase (SEAP) reporter gene upon cytokine stimulation. These cells are plated in DMVEM (Gibco) containing 10% heat-inactivated FBS (Gibco) and 100 U/mL PenStrep (Gibco) at 37° C. under […] conditions for 20-22 hours. The cells are then pretreated with serially diluted test compounds for 60 min prior to stimulation with either 10 ng/mL human recombinant IL-23 (Miltenyl Biotech) or 1 ng/mL human recombinant IFNα (InvivoGen) for 22-24 hours for IL-23 or 16-18 h for IFNα. SEAP induction is measured using the QUANTI Blue™ Solution (InvivoGen) according to the manufacturer's instructions. Inhibition data are calculated by comparison to no inhibitor control wells for 000 inhibition and non-stimulated control wells for 10000 inhibition. Dose response curves are generated to determine the concentration required to inhibit 5000 of cellular response (IC50) as derived by non-linear regression analysis.

In experiment [2] the target is T1, TYK2. Description: HEK-Blue IL-23 reporter assay (SEAP) for TYK2 pseudokinase inhibition. Format: cell-based. More on the design: HEK-Blue™ IL-23 and IFNα/β cells with a stably-integrated cytokine receptor and STAT3 or STAT1; host or cells: HEK-Blue IL-23 / HEK-Blue IFNα/β cells (HEK293 background). The following applies: HEK-Blue IL-23 cells, 10 ng/mL human recombinant IL-23, SEAP reporter; read-out: IL23 IC50. As for the experimental part: as §1

T1 sequence (P29597 whole entry): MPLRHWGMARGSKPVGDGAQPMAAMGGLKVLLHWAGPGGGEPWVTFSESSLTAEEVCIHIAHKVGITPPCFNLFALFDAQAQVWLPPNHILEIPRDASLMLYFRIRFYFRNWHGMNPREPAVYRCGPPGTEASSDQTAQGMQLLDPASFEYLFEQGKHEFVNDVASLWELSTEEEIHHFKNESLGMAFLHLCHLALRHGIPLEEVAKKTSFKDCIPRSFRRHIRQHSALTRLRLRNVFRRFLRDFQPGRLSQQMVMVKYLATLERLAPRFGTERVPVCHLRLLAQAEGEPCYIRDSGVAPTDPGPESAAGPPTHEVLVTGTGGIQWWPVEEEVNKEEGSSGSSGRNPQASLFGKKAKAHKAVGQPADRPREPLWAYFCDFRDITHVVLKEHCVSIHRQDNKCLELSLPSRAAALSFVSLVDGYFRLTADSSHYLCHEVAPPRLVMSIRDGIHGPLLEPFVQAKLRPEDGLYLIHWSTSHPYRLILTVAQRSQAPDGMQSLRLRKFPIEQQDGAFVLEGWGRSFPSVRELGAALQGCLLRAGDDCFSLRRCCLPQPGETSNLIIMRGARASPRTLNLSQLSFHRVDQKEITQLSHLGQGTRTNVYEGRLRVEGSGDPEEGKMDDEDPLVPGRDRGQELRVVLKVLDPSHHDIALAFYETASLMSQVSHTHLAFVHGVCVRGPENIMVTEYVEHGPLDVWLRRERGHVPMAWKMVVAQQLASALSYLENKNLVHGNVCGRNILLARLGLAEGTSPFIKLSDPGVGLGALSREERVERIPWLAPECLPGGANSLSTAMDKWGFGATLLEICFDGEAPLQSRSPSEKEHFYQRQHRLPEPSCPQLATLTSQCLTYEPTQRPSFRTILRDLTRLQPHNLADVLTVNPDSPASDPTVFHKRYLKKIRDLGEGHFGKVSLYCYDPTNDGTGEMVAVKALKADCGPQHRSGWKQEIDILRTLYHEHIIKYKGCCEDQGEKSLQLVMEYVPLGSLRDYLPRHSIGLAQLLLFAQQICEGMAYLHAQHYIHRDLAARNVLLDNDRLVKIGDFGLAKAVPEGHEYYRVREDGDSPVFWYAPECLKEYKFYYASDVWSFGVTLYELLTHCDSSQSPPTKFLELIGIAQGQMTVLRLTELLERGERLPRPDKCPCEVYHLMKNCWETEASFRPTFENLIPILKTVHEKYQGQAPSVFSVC

On to `COc1cccc(-n2[nH]c(=O)c3cnc(Nc4cc(C)nc(C)n4)cc32)n1` [Compound I-33, 6-((2,6-dimethylpyrimidin-4-yl)amino)-1-(6-methoxypyridin-2-yl)-1,2-dihydro-3H1-pyrazolo[4,3-c]pyridin-3-one], for which the IC50 at TYK2 [1] and at TYK2 [2] was under 10 µM throughout.
With `CC(C)(C)OC(=O)Nc1cc2c(cn1)c(=O)[nH]n2-c1ccccc1` [Compound I-35, tert-butyl N-{3-oxo-1-phenyl-1H,2H,3H-pyrazolo[4,3-c]pyridin-6-yl}carbamate], the IC50 at TYK2 [1] and on TYK2 [2] was over 90 µM in each case.
`COc1cccc(-n2[nH]c(=O)c3cnc(Nc4ccc(F)cn4)cc32)n1` [Compound I-36, 6-((5-fluoropyridin-2-yl)amino)-1-(6-methoxypyridin-2-yl)-1,2-dihydro-3H-pyrazolo[4,3-c]pyridin-3-one]: the IC50 at TYK2 [1] and on TYK2 [2] was under 10 µM throughout.
For `COc1cccc(-n2[nH]c(=O)c3cnc(Nc4ccc(F)cn4)cc32)c1F` [Compound I-38, 1-(2-fluoro-3-methoxyphenyl)-6-((5-fluoropyridin-2-yl)amino)-1,2-dihydro-3H-pyrazolo[4,3-c]pyridin-3-one], the half-inhibitory concentration (IC50) was 10 to 30 µM at TYK2 [1] and under 10 µM at TYK2 [2].
For `COc1cccc(-n2[nH]c(=O)c3cnc(Nc4ccc(F)cn4)cc32)c1` [Compound I-39, 6-((5-fluoropyridin-2-yl)amino)-1-(3-methoxyphenyl)-1,2-dihydro-3H-pyrazolo[4,3-c]pyridin-3-one], in that order: under 10 µM and under 10 µM.
As for `COc1cccc(-n2[nH]c(=O)c3cnc(Nc4ccc(C#N)cn4)cc32)c1` [Compound I-40, 6-((1-(3-methoxyphenyl)-3-oxo-2,3-dihydro-1H-pyrazolo[4,3-c]pyridin-6-yl)amino)nicotinonitrile], the half-inhibitory concentration (IC50) at TYK2 [1] and on TYK2 [2] was under 10 µM in each case.
Turning to `COc1ccc(Nc2cc3c(cn2)c(=O)[nH]n3-c2cccc(OC)c2)nc1` [Compound I-41, 1-(3-methoxyphenyl)-6-((5-methoxypyridin-2-yl)amino)-1,2-dihydro-3H-pyrazolo[4,3-c]pyridin-3-one], the half-inhibitory concentration (IC50) at TYK2 [1] and at TYK2 [2] was under 10 µM throughout.
For the compound `COc1cccc(-n2[nH]c(=O)c3cnc(Nc4ccc(C(F)(F)F)cn4)cc32)c1` [Compound I-42, 1-(3-methoxyphenyl)-6-((5-(trifluoromethyl)pyridin-2-yl)amino)-1,2-dihydro-3H-pyrazolo[4,3-c]pyridin-3-one], the IC50 at TYK2 [1] and on TYK2 [2] was under 10 µM throughout.
Regarding `COc1cccc(-n2[nH]c(=O)c3cnc(Nc4cc(C#N)ccn4)cc32)c1` [Compound I-44, 2-((1-(3-methoxyphenyl)-3-oxo-2,3-dihydro-1H-pyrazolo[4,3-c]pyridin-6-yl)amino)isonicotinonitrile], the 50% inhibitory concentration (IC50) at TYK2 [1] and on TYK2 [2] was under 10 µM each time.
With `COc1cccc(-n2[nH]c(=O)c3cnc(Nc4cc(OC)ccn4)cc32)c1` [Compound I-45, 1-(3-methoxyphenyl)-6-((4-methoxypyridin-2-yl)amino)-1,2-dihydro-3H-pyrazolo[4,3-c]pyridin-3-one], the IC50 on TYK2 [1] is over 90 µM; at TYK2 [2], 10 to 30 µM.
For `COc1cccc(-n2[nH]c(=O)c3cnc(Nc4cc(OC)ncn4)cc32)c1` [Compound I-46, 1-(3-methoxyphenyl)-6-((6-methoxypyrimidin-4-yl)amino)-1,2-dihydro-3H-pyrazolo[4,3-c]pyridin-3-one], in that order: over 90 µM and under 10 µM.
With `COc1cccc(-n2[nH]c(=O)c3cnc(Nc4cc(C)ncn4)cc32)c1` [Compound I-47, 1-(3-methoxyphenyl)-6-((6-methylpyrimidin-4-yl)amino)-1,2-dihydro-3H-pyrazolo[4,3-c]pyridin-3-one], the IC50 is under 10 µM at TYK2 [1] and over 90 µM at TYK2 [2].
For `COc1cccc(-n2[nH]c(=O)c3cnc(Nc4ccnc(OC)n4)cc32)c1` [Compound I-48, 1-(3-methoxyphenyl)-6-((2-methoxypyrimidin-4-yl)amino)-1,2-dihydro-3H-pyrazolo[4,3-c]pyridin-3-one], in that order: over 90 µM and over 90 µM.
On the same counts, the results for `COc1cccc(-n2[nH]c(=O)c3cnc(Nc4ccccn4)cc32)c1` [Compound I-50, 1-(3-methoxyphenyl)-6-(pyridin-2-ylamino)-1,2-dihydro-3H-pyrazolo[4,3-c]pyridin-3-one] are under 10 µM and under 10 µM.
On to `COc1cccc(-n2[nH]c(=O)c3cnc(Nc4ccncn4)cc32)c1` [Compound I-51, 1-(3-methoxyphenyl)-6-(pyrimidin-4-ylamino)-1,2-dihydro-3H-pyrazolo[4,3-c]pyridin-3-one], for which the IC50 on TYK2 [1] and at TYK2 [2] was under 10 µM throughout.
For the compound `COc1cccc(-n2[nH]c(=O)c3cnc(Nc4cccnn4)cc32)c1` [Compound I-52, 1-(3-methoxyphenyl)-6-(pyridazin-3-ylamino)-1,2-dihydro-3H-pyrazolo[4,3-c]pyridin-3-one], the IC50 at TYK2 [1] and on TYK2 [2] was under 10 µM in each case.
With `COc1cccc(-n2[nH]c(=O)c3cnc(Nc4cnccn4)cc32)c1` [Compound I-53, 1-(3-methoxyphenyl)-6-(pyrazin-2-ylamino)-1,2-dihydro-3H-pyrazolo[4,3-c]pyridin-3-one], the half-inhibitory concentration (IC50) at TYK2 [1] and on TYK2 [2] was under 10 µM each time.
Regarding `COc1cccc(-n2[nH]c(=O)c3cnc(NC(=O)C4CC4)cc32)c1` [Compound I-54, N-(1-(3-methoxyphenyl)-3-oxo-2,3-dihydro-1H-pyrazolo[4,3-c]pyridin-6-yl)cyclopropanecarboxamide], the IC50 at TYK2 [1] and on TYK2 [2] was under 10 µM each time.
For `O=C(Nc1cc2c(cn1)c(=O)[nH]n2-c1cccc(OC(F)(F)F)c1)C1CC1` [Compound I-55, N-(3-oxo-1-(3-(trifluoromethoxy)phenyl)-2,3-dihydro-1H-pyrazolo[4,3-c]pyridin-6-yl)cyclopropanecarboxamide], the IC50 at TYK2 [1] and on TYK2 [2] was under 10 µM throughout.
In the case of `O=c1[nH]n(-c2cccc(OC(F)(F)F)c2)c2cc(Nc3ccc(F)cn3)ncc12` [Compound I-56, 6-((5-fluoropyridin-2-yl)amino)-1-(3-(trifluoromethoxy)phenyl)-1,2-dihydro-3H-pyrazolo[4,3-c]pyridin-3-one], the 50% inhibitory concentration (IC50) at TYK2 [1] is 10 to 30 µM; at TYK2 [2], under 10 µM.
On the same counts, the results for `Cc1cc(Nc2cc3c(cn2)c(=O)[nH]n3-c2cccc(C(F)(F)F)c2)nc(C)n1` [Compound I-57, 6-((2,6-dimethylpyrimidin-4-yl)amino)-1-(3-(trifluoromethyl)phenyl)-1,2-dihydro-3H-pyrazolo[4,3-c]pyridin-3-one] are under 10 µM and under 10 µM.
With `O=C(Nc1cc2c(cn1)c(=O)[nH]n2-c1cccc(C(F)(F)F)c1)C1CC1` [Compound I-58, N-(3-oxo-1-(3-(trifluoromethyl)phenyl)-2,3-dihydro-1H-pyrazolo[4,3-c]pyridin-6-yl)cyclopropanecarboxamide], the IC50 at TYK2 [1] and at TYK2 [2] was under 10 µM throughout.
For `O=c1[nH]n(-c2cccc(F)c2)c2cc(Nc3ccc(F)cn3)ncc12` [Compound I-60, 1-(3-fluorophenyl)-6-((5-fluoropyridin-2-yl)amino)-1,2-dihydro-3H-pyrazolo[4,3-c]pyridin-3-one], the results for the half-inhibitory concentration (IC50) at TYK2 [1] and at TYK2 [2] were under 10 µM and over 90 µM, respectively.
Consider `O=C(Nc1cc2c(cn1)c(=O)[nH]n2-c1cccc(F)c1)C1CC1` [Compound I-61, N-(1-(3-fluorophenyl)-3-oxo-2,3-dihydro-1H-pyrazolo[4,3-c]pyridin-6-yl)cyclopropanecarboxamide], for which the half-maximal inhibitory concentration (IC50) on TYK2 [1] and on TYK2 [2] was under 10 µM throughout.
On to `CS(=O)(=O)c1ccc(-n2[nH]c(=O)c3cnc(Nc4ccc(F)cn4)cc32)cc1` [Compound I-62, 6-((5-fluoropyridin-2-yl)amino)-1-(4-(methylsulfonyl)phenyl)-1,2-dihydro-3H-pyrazolo[4,3-c]pyridin-3-one], for which the values for the IC50 on TYK2 [1] and at TYK2 [2] were 30 to 90 µM and under 10 µM, respectively.
On the same counts, the results for `Cc1cc(Nc2cc3c(cn2)c(=O)[nH]n3-c2ccc(C#N)cc2)nc(C)n1` [Compound I-63, 4-(6-((2,6-dimethylpyrimidin-4-yl)amino)-3-oxo-2,3-dihydro-1H-pyrazolo[4,3-c]pyridin-1-yl)benzonitrile] are under 10 µM and under 10 µM.
For the compound `N#Cc1ccc(-n2[nH]c(=O)c3cnc(Nc4ccc(F)cn4)cc32)cc1` [Compound I-64, 4-(6-((5-fluoropyridin-2-yl)amino)-3-oxo-2,3-dihydro-1H-pyrazolo[4,3-c]pyridin-1-yl)benzonitrile], the half-maximal inhibitory concentration (IC50) at TYK2 [1] and on TYK2 [2] was under 10 µM in each case.
As to `Cc1cc(Nc2cc3c(cn2)c(=O)[nH]n3-c2ccc(C(F)(F)F)cc2)nc(C)n1` [Compound I-66, 6-((2,6-dimethylpyrimidin-4-yl)amino)-1-(4-(trifluoromethyl)phenyl)-1,2-dihydro-3H-pyrazolo[4,3-c]pyridin-3-one], the IC50 at TYK2 [1] and on TYK2 [2] was under 10 µM each time.
